Values joined by “and” are separate entries in the source; they are usually repeats but may differ in a detail not shown here. Equal entries are not always repeated. Where two headings read alike, the source gives them in different places.
Columns and labels:
[1] = system: Nalidixic acid resistant E. coli O157:H7; assay: Reduction of E. coli on raw beef brisket, dip treatment; assay type: cell-based; conditions: for CFU/cm2 / CFU/ml / Log CFU/cm2: replicates
Source text: Nalidixic acid resistant E. coli O157:H7 was used to evaluate the efficacy in treatment with performic acid composition on raw beef brisket according to the conditions shown in Table 32.

[2] = system: microorganisms in produced water; assay: Microbial efficacy by ATP concentration (AccuCount) in produced water; assay type: cell-based; conditions: PFA 5 ppm active, compounds 50 ppm product
Procedure: Microbial efficacy of PFA alone (5 ppm active) or PFA (5 ppm active) in conjunction with the compounds (50 ppm product) listed in the Table 20 below and in FIG. 13 were tested by measuring the ATP concentration in the untreated and treated produced water samples (using AccuCount technology). Reductions in bacterial numbers were tabulated as % kill for each experiment. The results are represented in FIG. 13 and in Table 20.

[3] = system: Pseudomonas; assay: Bactericidal activity of PFA versus POAA; assay type: cell-based; conditions: P. aeruginosa ATCC 15442, 5 minutes, dirty conditions, 20° C.
Source text: (§1) Staphylococcus, Enterococcus and Pseudomonas pathogens were used to evaluate the micro efficacy of PFA in comparison to POAA.

[4] = system: Staphylococcus; assay: Bactericidal activity of PFA versus POAA; assay type: cell-based; conditions: S. aureus ATCC 6538, 5 minutes, dirty conditions, 20° C.
Source text: as §1

[5] = system: Enterococcus; assay: Bactericidal activity of PFA versus POAA; assay type: cell-based; conditions: E. hirae ATCC 10541, 5 minutes, dirty conditions, 20° C.
Source text: as §1

[6] = Performance of corrosion inhibitor in sea water and produced water systems (% protection); conditions: 200 ppm active performic acid, 50 ppm corrosion inhibitor (PFA: no inhibitor)
Procedure: 200 ppm active of performic acid was added. 50 ppm of corrosion inhibitor was added for corrosion protection. % protection was plotted by comparison of the corrosion rate in the presence of corrosion inhibitor to the corrosion rate with no corrosion inhibitor addition (PFA or PFA-PW) as shown in Table 30.

[7] = system: L. monocytogenes (ATCC 19114, 19116 and 4594); assay: Low temperature disinfectant efficacy, log reduction; assay type: cell-based; conditions: 4° C.; 1 minute contact exposure; FIG. 32
Procedure: Micro efficacy of PFA according to the present invention was evaluated under low temperature, low oxygen conditions employing the formulation of Table 41.
The log reduction of L. monocytogenes (ATCC 19114, 19116 and 4594) were evaluated at low temperature (4° C.) comparing peroxvacetic acid to the peroxyformic acid generated according to the formulation shown in Table 41. The results are shown in FIG. 32 comparing disinfectant efficacy after a 1 minute contact exposure to the disinfectants.
As a result, the performic acid generated has a great fit for application in brewery plants. The exceptional antimicrobial efficacy of performic acid at low temperature meets the requirement of cold temperature environment of brewery operations, while common biocides including peroxycarboxylic acids such as peracetic acids will suffer the efficacy lose under low temperatures. In addition, formic acid that always coexists with performic acid is a very efficient acidulant, which will help prevent/dissolve beer stone, thus eliminate the additional acid wash. As a further benefit the performic acid composition has very high performic acid to H2O2 ratio, which practically eliminates the O2 that could potentially introduced to the liquid being processed (i.e. beer) and interfere with the organoleptic effects and negative taste effects.

[8] = system: Various pathogens; assay type: cell-based; conditions: for Result (Passing Requirement 5 log reduction): EN 13727
[9] = system: microbes in water sample (80% tap water 20% produced water); assay: Kill performance (log reduction) in water sample, 5 min exposure; assay type: cell-based; conditions: exposure time 5 min
Source text: Synergy examples range from pH 0 to 12 at varied concentrations. Synergistic activity is defined as a technical effect that exceeds the addition of the cumulative performance of the materials in formulation.
As referred to in Table 8 the following commercially-available test substances were employed: POAA (15% POAA, 10% H2O2), PAA 1 (21% peracetic, 3.5% H2O2), POOA (0.5% POOA, 6.8% H2O2).

[10] = system: acid producing bacteria (APBs); assay: Biocidal performance on treated produced water, bug bottles serial dilution; assay type: cell-based; conditions: PFA treatment of produced water
Procedure: Treatment of produced water with performic acid was evaluated using performic acid compositions containing a corrosion inhibitor. As shown in FIG. 28 (grey scale) the lighter color […] in the water, whereas the darker shading indicates no growth. Untreated has E5 bacteria/mL; 0.5 ppm PFA treated has E3 bacteria/mL. The bacterial bug bottles are specific in supporting growth of acid producing bacteria (APBs). Growth of APB is indicated by a color change from dark to light color (pink to yellow). 1 mL of initial inoculum was diluted 10 times in subsequent bottles. Therefore each bottle indicates a El bacteria/mL. Based on the results observed by growth/no growth of bacteria it can be concluded that PFA treatment results in at least a reduction of 2 log (equivalent of E2 bacteria/mL) bacteria.

[11] = 180 ppm PFA, pH 8.76, 10 minutes, raw beef brisket
[12] = 220 ppm POAA, pH 8.86, 10 minutes, raw beef brisket

Which “Average Log CFU/cm2” value [1, 11] does the source give for `O=COO` [PFA, peroxyformic acid] here?
Its value is 3.22 Log CFU/cm2.

What about the “Log reduction” value [1, 11] of the same compound?
Its value is 0.83.

What about the CFU/cm2 [1, 11] of the same compound?
Its CFU/cm2 is 1.84E+03 CFU/cm2 and 1.42E+03 CFU/cm2 and 1.72E+03 CFU/cm2.

What about the CFU/ml [1, 11] of the same compound?
Its CFU/ml is 9.20E+02 CFU/ml and 7.10E+02 CFU/ml and 8.60E+02 CFU/ml.

What about the “Log CFU/cm2” value [1, 11] of the same compound?
The value was 3.26 Log CFU/cm2 and 3.15 Log CFU/cm2 and 3.24 Log CFU/cm2.

And the “% Kill” value [2]?
The value was 87.9%.

What about the “Average CFU/mL” value ([3]; 20 ppm PFA × 1.25, pH 6.61) of the same compound?
The value was less than 140 CFU/mL.

What about the “Log10 Growth” value ([3]; 20 ppm PFA × 1.25, pH 6.61) of the same compound?
Its value is less than 2.15.

What about the “Average CFU/mL” value ([3]; 30 ppm PFA × 1.25, pH 6.74) of the same compound?
The value was less than 140 CFU/mL.

And the “Log10 Growth” value ([3]; 30 ppm PFA × 1.25, pH 6.74)?
The value was less than 2.15.

What about the “Average CFU/mL” value ([3]; 50 ppm PFA × 1.25, pH 6.60) of the same compound?
The value was less than 140 CFU/mL.

And the “Log10 Growth” value ([3]; 50 ppm PFA × 1.25, pH 6.60)?
Its value is less than 2.15.

And the “Average CFU/mL” value ([4]; 20 ppm PFA × 1.25, pH 6.61)?
The value was less than 140 CFU/mL.

And the “Log10 Growth” value ([4]; 20 ppm PFA × 1.25, pH 6.61)?
Its value is less than 2.15.

And the “Average CFU/mL” value ([4]; 30 ppm PFA × 1.25, pH 6.74)?
Its value is less than 140 CFU/mL.

What about the “Log10 Growth” value ([4]; 30 ppm PFA × 1.25, pH 6.74) of the same compound?
Its value is less than 2.15.

And the “Average CFU/mL” value ([4]; 50 ppm PFA × 1.25, pH 6.60)?
The value was less than 140 CFU/mL.

And the “Log10 Growth” value ([4]; 50 ppm PFA × 1.25, pH 6.60)?
Its value is less than 2.15.

And the “Average CFU/mL” value ([5]; 20 ppm PFA × 1.25, pH 6.61)?
The value was 6.30E+03 CFU/mL.

And the “Log10 Growth” value ([5]; 20 ppm PFA × 1.25, pH 6.61)?
Its value is 3.80.

And the “Average CFU/mL” value ([5]; 30 ppm PFA × 1.25, pH 6.74)?
Its value is 2.15E+02 CFU/mL.

What about the “Log10 Growth” value ([5]; 30 ppm PFA × 1.25, pH 6.74) of the same compound?
The value was 2.33.

And the “Average CFU/mL” value ([5]; 50 ppm PFA × 1.25, pH 6.60)?
The value was less than 140 CFU/mL.

And the “Log10 Growth” value ([5]; 50 ppm PFA × 1.25, pH 6.60)?
The value was less than 2.15.

What about the “% Protection, 3 hrs after dosing” value ([6]; produced water (PW)) of the same compound?
The value was −237.2%.

What about the “% Protection, 8 hrs after dosing” value ([6]; produced water (PW)) of the same compound?
Its value is −228.1%.

What about the “% Protection, Last hour of testing” value ([6]; produced water (PW)) of the same compound?
Its value is −261.2%.

What about the “% Protection, 3 hrs after dosing” value ([6]; sea water) of the same compound?
The value was −10666.2%.

What about the “% Protection, 8 hrs after dosing” value ([6]; sea water) of the same compound?
The value was −13447.5%.

What about the “% Protection, Last hour of testing” value ([6]; sea water) of the same compound?
Its value is −14481.9%.

And the “disinfectant efficacy at the lower temperature (in words)” value [7]?
Its value is “does not decrease”.

What about the “Result (Passing Requirement 4 log reduction)” value ([8]; EN 13624, Aspergillus brasiliensis ATCC 1604, 450 ppm PFA pH 6-7) of the same compound?
The value was “PASS”.

What about the “Result (Passing Requirement 4 log reduction)” value ([8]; EN 13624, Canidia albicans ATCC 10231, 450 ppm PFA pH 6-7) of the same compound?
The value was “PASS”.

What about the “Result (Passing Requirement 3 log reduction)” value ([8]; EN 13704, Bacillus subtilis ATCC 6633, 450 ppm PFA pH 6-7) of the same compound?
The value was “PASS”.

And the “Result (Passing Requirement 5 log reduction)” value ([8]; Enterococcus hirae ATCC 10541, 450 ppm PFA pH 6-7)?
Its value is “PASS”.

And the “Result (Passing Requirement 5 log reduction)” value ([8]; P. aeruginosa ATCC 15442, 450 ppm PFA pH 6-7)?
Its value is “PASS”.

And the “Result (Passing Requirement 5 log reduction)” value ([8]; Staph. Aureus ATCC 6538, 450 ppm PFA pH 6-7)?
Its value is “PASS”.

What about the “Result (Passing Requirement 4 log reduction)” value ([8]; pH 6) of the same compound?
The value was “PASS”.

What about the Log reduction ([9]; 2 ppm PFA) of the same compound?
The Log reduction was 3.01.

And the Log reduction ([9]; 8.5 ppm PFA)?
The Log reduction was 5.69.

What about the Log reduction ([9]; 10 ppm PFA) of the same compound?
Its Log reduction is 5.28.

And the reduction of bacteria [10]?
Its reduction of bacteria is no less than 2 log.

Which results are given for `CC(=O)OO` [POAA, peroxyacetic acid, reference compound]?
Average Log CFU/cm2 [1, 12]: 2.98 Log CFU/cm2; Log reduction [1, 12]: 1.06; CFU/cm2 [1, 12]: 1.20E+03 CFU/cm2 and 9.00E+02 CFU/cm2 and 8.00E+02 CFU/cm2; CFU/ml [1, 12]: 6.00E+02 CFU/ml and 4.50E+02 CFU/ml and 4.00E+02 CFU/ml; Log CFU/cm2 [1, 12]: 3.08 Log CFU/cm2 and 2.95 Log CFU/cm2 and 2.90 Log CFU/cm2; Log reduction ([1]; 220 ppm POAA, pH 8.86, dip for 10 minutes, ambient): 1.06; Average CFU/mL ([3]; 24.8 ppm POAA × 1.25, pH 6.73): <140 CFU/mL; Log10 Growth ([3]; 24.8 ppm POAA × 1.25, pH 6.73): <2.15; Average CFU/mL ([3]; 37.6 ppm POAA × 1.25, pH 6.90): <140 CFU/mL; Log10 Growth ([3]; 37.6 ppm POAA × 1.25, pH 6.90): <2.15; Average CFU/mL ([3]; 62.4 ppm POAA × 1.25, pH 6.98): <140 CFU/mL; Log10 Growth ([3]; 62.4 ppm POAA × 1.25, pH 6.98): <2.15; Average CFU/mL ([4]; 24.8 ppm POAA × 1.25, pH 6.73): 1.77E+05 CFU/mL; Log10 Growth ([4]; 24.8 ppm POAA × 1.25, pH 6.73): 5.25; Average CFU/mL ([4]; 37.6 ppm POAA × 1.25, pH 6.90): <140 CFU/mL; Log10 Growth ([4]; 37.6 ppm POAA × 1.25, pH 6.90): <2.15; Average CFU/mL ([4]; 62.4 ppm POAA × 1.25, pH 6.98): <140 CFU/mL; Log10 Growth ([4]; 62.4 ppm POAA × 1.25, pH 6.98): <2.15; Average CFU/mL ([5]; 24.8 ppm POAA × 1.25, pH 6.73): >3.30E+05 CFU/mL; Log10 Growth ([5]; 24.8 ppm POAA × 1.25, pH 6.73): >5.52; Average CFU/mL ([5]; 37.6 ppm POAA × 1.25, pH 6.90): 9.25E+03 CFU/mL; Log10 Growth ([5]; 37.6 ppm POAA × 1.25, pH 6.90): 3.97; Average CFU/mL ([5]; 62.4 ppm POAA × 1.25, pH 6.98): <140 CFU/mL; Log10 Growth ([5]; 62.4 ppm POAA × 1.25, pH 6.98): <2.15; disinfectant efficacy at the lower temperature (in words) [7]: significantly decreases

Source: US10899707B2, “Methods for forming peroxyformic acid and uses thereof” (ECOLAB USA INC., priority 2014, dated 2021)
